Measurements published in patent US9447114B2, “Thieno- and furo[2,3-d]pyrimidine-2,4[1H,3H]-dione derivatives” (Hydra Biosciences, Inc., priority 2014, dated 2016).

Legend:
TRPC5 channel [1] = target: T1, TRPC5 channel (Homo sapiens (Human), UniProt Q9UL62); experiment: High throughput screening assay: intracellular Ca2+ rise, Fluo4 cell-based fluorescence; details: HEK293/TREx cells inducibly expressing TRPC5, high-Ca2+ Ringer, 14 mM Ca2+ final, triplicate, 0.027-20 μM
Text: The assay depended on detection of the rise in intracellular Ca2+ concentration ([Ca2+]i) following channel activation in cells inducibly expressing the TRPC5 channel. Ca2+ rise was quantified with the use of fluorescent Ca2+ indicators that were loaded into cells and thereafter indicated the [Ca2+]i Ca2+ influx followed activation of the TRPC5 channel. Compounds inhibiting the [Ca2+]i rise were considered hits for further investigation.
The commercially available HEK293/TREx line (Invitrogen) was stably transfected with a TRPC5 construct and screened by conventional calcium imaging to find clones with TRPC5 expression following stimulation with 1 μg/ml tetracycline. These cells were maintained in the growth medium recommended by the manufacturer supplemented with 100 μg/ml hygromycin to promote retention of the TRPC5 construct. After growing to near confluency, cells were plated at a density of ˜35,000 cells/well in 384 well CellBind plates (Corning) in the presence of 1 μg/ml tetracycline, and allowed to grow for 20-30 hrs. A nearly confluent monolayer resulted. Cells were then loaded with Ca2+ dye: Fura-2/AM or Fluo4/AM was added to the wells to a final concentration of 4 μM or 0.5 μM, respectively, and incubated for 80 min or 60 min, respectively, at room temperature. Supernatant was then removed from the cells by inverting plates with a sharp flick, and 25 μl Hank's Balanced Salt Solution (HBSS; 0.185 g/l D-glucose, 0.9767 g/l MgS04 (anhydrous), 0.4 g/l KCl, 0.06 g/l KH2PO4 (anhydrous), 0.35 g/l NaHCO3, 8.0 g/l NaCl, and 0.04788 g/l Na2HPO4 (anhydrous); pH 7.4) was then added to each well. Following ˜0.5 hour for recovery from loading, cells were assayed using the Hamamatsu FDSS 6000 system, which permitted illumination alternately at 340 nm and 380 nm for Fura-2 experiments, or at 485 nm for Fluo4 experiments. Frames were acquired at a rate of 0.2 Hz. During the assay, the plates were continuously vortexed, with pipette mixing of wells following addition of each reagent. For the screening assay, 26 μl of a diluted compound stock (at 50 μM) was added to each well for 2 minutes following the collection of a short (4 frame) baseline. 13 μl 62 mM high-Ca2+Ringer solution (4.17 ml of normal ringer (with 2 mM Ca2+) plus 5.83 ml of isotonic calcium ringer (105 mM Ca2+; in this ringer all sodium has been replaced with calcium)) was then added to each well, achieving a final concentration of 14 mM Ca2+ and 10 μM test compound. Data was collected for ˜3 minutes following addition of high Ca2+Ringer, where the fluorescent intensity (for Fluo4) and the F340/F380 ratio (for Fura-2) were proportional to the [Ca2+]i Negative controls consisted of HEK293/TREx TRPC5 cells exposed to high Ca2+ solution, but no compound. Positive control conditions consisted of addition of 2-APB, a promiscuous blocker of TRPC5 and other channels, to columns 23 and 24 of the plates, to a final concentration of 200 μM. These controls defined a screening window, and “hits” were defined as those compounds inhibiting the fluorescence response by at least 40%. IC50 values were determined for compounds defined as “hits.” The Fluo4 cell-based fluorescence assay was used to determine the intracellular Ca2+ concentration in the presence of varying drug concentration. Final concentrations of compounds tested were 20 μM, 6.667 μM, 2.222 μM, 0.741 μM, 0.247 μM, 0.082 μM, and 0.027 μM. Compounds were tested in triplicate at all concentrations. Standard software was used to fit IC50 curves.
Additionally or alternatively, efficacy can be represented as % inhibition in the presence (of a given concentration of compound) versus the absence of compound or in comparison to a control compound. For example, efficacy can be represented as % inhibition of ion flux in the presence versus the absence of compound.

TRPC5 channel [2] = target: T1, TRPC5 channel; experiment: Whole-cell patch clamp of TRPC5 current; type: cell-based; details: TRPC5-expressing HEK293 TREx cells, current activated by 80 μM LaCl3 and 1.4 μM free Ca2+ in pipette, IC50 estimated
Text: Patch clamp experiments permit the detection of currents through the TRPC5 channel in the cell line described above. In normal whole-cell patch clamp recordings, a glass electrode is brought into contact with a single cell and a high-resistance (gigaohm) seal is established with the cell membrane. The membrane is then ruptured to achieve the whole-cell configuration, permitting control of the voltage of the cell membrane and measurement of currents flowing across the membrane using the amplifier attached to the electrode and resulting in the replacement of cytoplasm with the pipette solution. A perfusion system permits control of the extracellular solution, including the addition of blockers and activators of the current. The current can be activated by including 1.4 μM free Ca^2+ in the pipette (intracellular) solution, and 80 μM LaCl3 in the extracellular solution.
TRPC5 cells were induced 20-48 hours, removed from growth plates, and replated at low density (to attain good single-cell physical separation) on glass coverslips for measurement. In some cases, cells were grown in low density overnight on glass coverslips. Patch clamp recordings were made in the whole-cell mode with a holding potential of −40 mV. Every 5 seconds, a voltage ramp was applied from −120 to +100 mV, 400 ms in duration. Currents elicited were quantified at −80 mV and +80 mV. The internal solution consisted of 140 mM cesium aspartate, 10 mM HEDTA, 2 mM CaCl2, 2.27 mM MgCl2 and 10 mM HEPES, pH 7.2, with 1,400 nM calculated free Ca^2+. The external solution consisted of 150 mM NaCl, 4.5 mM KCl, 1 mM MgCl2, 2 mM CaCl2 10 mM HEPES, 10 mM glucose, 1 mM EGTA, pH 7.4. Upon addition of LaCl3, TRPC5 current was induced only in TRPC5-expressing cells and not in parental HEK293 TREx cells. Removal of the LaCl3 stimulus causes most of the current to go away. Potential blockers were tested for ability to block both inward and outward currents in the continued presence of LaCl3.
IC50 of a compound of Formula (I) was estimated by testing the compound at 5 μM and 500 nM. […] IC50 for a compound of Formula (I) between 500 nM and 5 μM was similarly estimated.

T1 sequence (Q9UL62 whole entry): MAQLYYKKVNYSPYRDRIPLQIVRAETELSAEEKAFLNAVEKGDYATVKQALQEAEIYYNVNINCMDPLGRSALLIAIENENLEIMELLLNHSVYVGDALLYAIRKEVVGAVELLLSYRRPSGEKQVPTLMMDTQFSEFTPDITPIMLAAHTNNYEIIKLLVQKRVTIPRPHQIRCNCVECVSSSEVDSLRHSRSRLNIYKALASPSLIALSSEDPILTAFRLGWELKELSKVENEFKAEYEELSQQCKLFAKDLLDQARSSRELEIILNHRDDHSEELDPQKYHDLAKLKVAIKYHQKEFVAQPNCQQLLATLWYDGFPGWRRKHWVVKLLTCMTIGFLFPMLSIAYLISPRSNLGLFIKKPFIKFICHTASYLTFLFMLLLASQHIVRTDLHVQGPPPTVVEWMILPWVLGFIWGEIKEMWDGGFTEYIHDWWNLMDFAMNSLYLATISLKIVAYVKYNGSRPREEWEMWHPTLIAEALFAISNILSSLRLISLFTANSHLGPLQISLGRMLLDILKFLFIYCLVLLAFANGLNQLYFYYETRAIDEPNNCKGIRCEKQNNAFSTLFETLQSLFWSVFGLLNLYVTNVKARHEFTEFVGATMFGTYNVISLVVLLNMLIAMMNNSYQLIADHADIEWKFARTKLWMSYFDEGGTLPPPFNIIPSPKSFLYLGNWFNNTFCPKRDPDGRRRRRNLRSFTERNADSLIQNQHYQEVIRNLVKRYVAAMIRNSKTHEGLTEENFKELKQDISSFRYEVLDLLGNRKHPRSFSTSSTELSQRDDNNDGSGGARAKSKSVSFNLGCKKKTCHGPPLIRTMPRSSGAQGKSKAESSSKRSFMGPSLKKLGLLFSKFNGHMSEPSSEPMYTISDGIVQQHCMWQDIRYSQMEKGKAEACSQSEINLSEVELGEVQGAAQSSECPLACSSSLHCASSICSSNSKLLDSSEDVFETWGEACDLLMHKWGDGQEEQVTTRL

Compound | IC50 (TRPC5 channel [1]) [nM] | IC50 (TRPC5 channel [2]) [nM]
Cc1c(-c2ccc(Cl)c(Cl)c2)sc2c1c(=O)n(CCCO)c(=O)n2C [Compound 5, 6-(3,4-dichlorophenyl)-3-(3-hydroxypropyl)-1,5-dimethylthieno[2,3-d]pyrimidine-2,4(1H,3H)-dione] | < 27 | –
Cc1c(-c2ccccc2Cl)sc2c1c(=O)n(CCCO)c(=O)n2C [Compound 16, 6-(2-chlorophenyl)-3-(3-hydroxypropyl)-1,5-dimethylthieno[2,3-d]pyrimidine-2,4(1H,3H)-dione] | 27 | –
CC(C)CCc1c(-c2cccc(OC(F)(F)F)c2)sc2c1c(=O)n(CCCO)c(=O)n2C [Compound 3, 3-(3-hydroxypropyl)-5-isopentyl-1-methyl-6-(3-(trifluoromethoxy)phenyl)thieno[2,3-d]pyrimidine-2,4(1H,3H)-dione] | 340 | –
Cc1c(-c2cncc(Cl)c2)sc2c1c(=O)n(CCCO)c(=O)n2C [Compound 8, 6-(5-chloropyridin-3-yl)-3-(3-hydroxypropyl)-1,5-dimethylthieno[2,3-d]pyrimidine-2,4(1H,3H)-dione] | 1700 | –
Cc1c(-c2cccc(Cl)c2)sc2c1c(=O)n(CCCO)c(=O)n2C [Compound 19, 6-(3-chlorophenyl)-3-(3-hydroxypropyl)-1,5-dimethylthieno[2,3-d]pyrimidine-2,4(1H,3H)-dione] | 226 | –
Cc1c(-c2ccc(F)c(C(F)(F)F)c2)sc2c1c(=O)n(CCCO)c(=O)n2C [Compound 6, 6-(4-fluoro-3-(trifluoromethyl)phenyl)-3-(3-hydroxypropyl)-1,5-dimethylthieno[2,3-d]pyrimidine-2,4(1H,3H)-dione] | < 27 | –
Cn1c(=O)n(CCCO)c(=O)c2c(Cc3ccc(Cl)cc3)c(-c3cccc(OC(F)(F)F)c3)sc21 [Compound 26, 5-(4-chlorobenzyl)-3-(3-hydroxypropyl)-1-methyl-6-(3-(trifluoromethoxy)phenyl)thieno[2,3-d]pyrimidine-2,4(1H,3H)-dione] | 1.91 | < 1
Cc1c(-c2ccc(Cl)cc2)sc2c1c(=O)n(CCCO)c(=O)n2C [Compound 25, 6-(4-chlorophenyl)-3-(3-hydroxypropyl)-1,5-dimethylthieno[2,3-d]pyrimidine-2,4(1H,3H)-dione] | 168 | 15.7
Cn1c(=O)n(CCCO)c(=O)c2c(C(O)c3ccc(Cl)cc3)c(-c3cccc(Cl)c3)sc21 (stereo not shown) [Compound 4, 6-(3-chlorophenyl)-5-((4-chlorophenyl) (hydroxy)methyl)-3-(3-hydroxypropyl)-1-methylthieno[2,3-d]pyrimidine-2,4(1H,3H)-dione] | 55 | –
Cc1c(-c2ccc3ccccc3c2)sc2c1c(=O)n(CCCO)c(=O)n2C [Compound 7, 3-(3-hydroxypropyl)-1,5-dimethyl-6-(naphthalen-2-yl)thieno[2,3-d]pyrimidine-2,4(1H,3H)-dione] | 34.9 | –
Cc1c(-c2cccc(F)c2)sc2c1c(=O)n(CCCO)c(=O)n2C [Compound 18, 6-(3-fluorophenyl)-3-(3-hydroxypropyl)-1,5-dimethylthieno[2,3-d]pyrimidine-2,4(1H,3H)-dione] | 27 | –
Cc1c(-c2ccc(F)c(F)c2)sc2c1c(=O)n(CCCO)c(=O)n2C [Compound 15, 6-(3,4-difluorophenyl)-3-(3-hydroxypropyl)-1,5-dimethylthieno[2,3-d]pyrimidine-2,4(1H,3H)-dione] | 112 | –
O=c1c2c(Cc3ccc(Cl)cc3)c(-c3cccc(Cl)c3)oc2n(CCCO)c(=O)n1CCCO [Compound 28, 5-(4-chlorobenzyl)-6-(3-chlorophenyl)-1,3-bis(3-hydroxypropyl)furo[2,3-d]pyrimidine-2,4(1H,3H)-dione] | 4330 | –
Cn1c(=O)n(CCCO)c(=O)c2c(Cc3ccc(Cl)cc3)c(-c3cccc(Cl)c3)oc21 [Compound 27, 5-(4-chlorobenzyl)-6-(3-chlorophenyl)-3-(3-hydroxypropyl)-1-methylfuro[2,3-d]pyrimidine-2,4(1H,3H)-dione] | 134 | < 1
CC(C)CC(O)c1c(-c2cccc(OC(F)(F)F)c2)sc2c1c(=O)n(CCCO)c(=O)n2C (stereo not shown) [Compound 22, 5-(1-hydroxy-3-methylbutyl)-3-(3-hydroxypropyl)-1-methyl-6-(3-(trifluoromethoxy)phenyl) thieno[2,3-d]pyrimidine-2,4(1H,3H)-dione] | 369 | –
Cn1c(=O)n(CCCO)c(=O)c2c(Cc3ccc(Cl)cc3)c(Oc3cccc(OC(F)(F)F)c3)sc21 [Compound 1, 5-(4-chlorobenzyl)-3-(3-hydroxypropyl)-1-methyl-6-(3-(trifluoromethoxy)phenoxy)thieno[2,3-d]pyrimidine-2,4(1H,3H)-dione] | 584 | < 1
Cn1c(=O)n(CCCO)c(=O)c2c(Cc3ccc(Cl)cc3)c(-c3ccc(Cl)cc3)sc21 [Compound 24, 5-(4-chlorobenzyl)-6-(4-chlorophenyl)-3-(3-hydroxypropyl)-1-methylthieno[2,3-d]pyrimidine-2,4(1H,3H)-dione] | 242 | 1.84
Cc1c(-c2cccc(OC(F)(F)F)c2)sc2c1c(=O)n(CCCO)c(=O)n2C [Compound 14, 3-(3-hydroxypropyl)-1,5-dimethyl-6-(3-(trifluoromethoxy)phenyl)thieno[2,3-d]pyrimidine-2,4(1H,3H)-dione] | 82.2 | –
Cc1c(-c2ccccc2OC(F)(F)F)sc2c1c(=O)n(CCCO)c(=O)n2C [Compound 13, 3-(3-hydroxypropyl)-1,5-dimethyl-6-(2-(trifluoromethoxy)phenyl)thieno[2,3-d]pyrimidine-2,4(1H,3H)-dione] | < 21 | –
Cn1c(=O)n(CCCO)c(=O)c2c(Cc3ccc(Cl)cc3)c(-c3cccc(Cl)c3)sc21 [Compound 23, 5-(4-chlorobenzyl)-6-(3-chlorophenyl)-3-(3-hydroxypropyl)-1-methylthieno[2,3-d]pyrimidine-2,4(1H,3H)-dione] | 27 | –
